Values after ≈ are worked out from the molar mass of the structure shown.

Broadly, the IC50 is the concentration that inhibits the measured activity by half. The term CC50 denotes the concentration at which the toxic effect on the cells reaches its halfway point. Low readings indicate harm at low concentration, high ones better tolerance by the cells.

For series [1], the system named is HepG-2 cell line. Briefly: MTT cytotoxicity assay, HepG-2. Type of series: cell-based, human. The settings on record: for IC50: Homo sapiens, HepG2, HepG-2 liver cancer cell line, MTT assay, mean ± SD; for SI, HepG-2: selectivity index = CC50 (Vero) / IC50 (HepG-2). The protocol: (§1) The cytotoxic potential was measured against Vero cells as well as MCF-7, HepG-2, and THP-1 cell lines provided from VACSERA, Agouza, Cairo, Egypt using a microplate 3-(4,5-dimethythiazole-2yl)-2,5-diphenyl-tetrazolium bromide (MTT) method (Ashour et al. [2006]; Njeru and Muema [2007]). All experiments were repeated three times with doxorubicin (Sigma, USA) as a positive control and 0.1% DMSO media as the negative control, respectively.
(§2) The selectivity index (SI) was obtained after dividing the IC50 value of Vero cells (which can be expressed as CC50) by the specific IC50 of cancer cell lines. High (SI) indicates high anticancer activity and low cellular toxicity. Selectivity was considered to be valuable for those with (SI) greater than three (Oliveira et al. [2015]; Tsemeugne et al. [2021]; Yousefbeyk et al. [2022]).
(§3) All statistical analyses were performed using GraphPad Prism version 9.2.0 to calculate the half-maximal inhibitory concentration (IC50) and the half-maximal cytotoxic concentration (CC50) where the level of significance was set at ([…]). Quantitative data were expressed as mean ± standard deviation (SD). GraphPad Prism version 9.2.0 was also used to create multiple bar charts of the cytotoxic activity and cell viability.
On the technique in general: Tetrazolium dyes change colour on reduction, which living cells bring about.

Series [2] relates to THP-1 cell line. Description: MTT cytotoxicity assay, THP-1. Type of series: cell-based, human. The settings on record: for IC50: Homo sapiens, THP-1 leukaemia cell line, MTT assay, mean ± SD; for SI, THP-1: selectivity index = CC50 (Vero) / IC50 (THP-1). As for the experimental part: as §1, §2, §3
The test system of series [3] is MCF-7 cell line. Description: MTT cytotoxicity assay, MCF-7. It is filed as cell-based, human. The settings on record: for IC50: Homo sapiens, MCF7, MCF-7 breast cancer cell line, MTT assay, mean ± SD; for SI, MCF-7: selectivity index = CC50 (Vero) / IC50 (MCF-7). The protocol:
as §1, §2, §3

A short description of series [4]: MTT assay, cytotoxic concentration (CC50) on Vero cells. The settings on record: African green monkey, mean ± SD, three repeats. Type of series: cell-based. The protocol: as §1, §3

For `COc1cccc2c1C(=O)c1c(O)c3c(c(O)c1C2=O)C[C@@](O)(C(=O)CO)C[C@@H]3O[C@H]1C[C@H](N)[C@H](O)[C@H](C)O1` [Doxorubicin, doxorubicin, reference compound], in series [1], half-maximal inhibition (IC50) was put at 31.6 ± 6.58 µg/mL (≈ 58.2 µM) and the “SI, HepG-2” value is reported as 3.65. In addition, in series [2], half-maximal inhibition (IC50) was put at 47.8 ± 7.03 µg/mL (≈ 88 µM) and the “SI, THP-1” value came to 2.41. Also, in series [3], the IC50 is 52.8 ± 5.36 µg/mL (≈ 97.1 µM) and the “SI, MCF-7” value came to 2.19. For the same compound, the midpoint of cytotoxicity in series [4], the CC50, lay at 116 ± 6.1 µg/mL (≈ 213 µM).
Take `CC=C1C(OC2OC(CO)C(O)C(O)C2O)OC=C2C(=O)OCC(C)C3(O)CCC(C)C3COC(=O)CC21` (centres unmarked) [Compound 4, isojasminin]: in series [1], half-maximal inhibition (IC50) required 33.5 ± 2.32 µg/mL (≈ 61.7 µM) and the “SI, HepG-2” value worked out at 3.03. Further, in series [2], inhibition was half-maximal at 51.1 ± 10.3 µg/mL (≈ 94.1 µM) (IC50) and the “SI, THP-1” value came out at 1.99. In series [3], 43.1 ± 3.02 µg/mL (≈ 79.5 µM) corresponded to half-maximal inhibition (IC50) and the “SI, MCF-7” value is 2.35. The same compound yielded a CC50 in series [4] of 102 ± 3.03 µg/mL (≈ 187 µM).
Take `CC=C1C(OC)OC=C2C(=O)OC3CC(C(C)CO)C(COC(=O)CC21)C3C` (single isomer, unassigned; (-)) [Compound 1, (-)-1-Methoxyjasmigenin]: in series [1], the IC50 worked out at 59.8 ± 1.45 µg/mL (≈ 152 µM) and the “SI, HepG-2” value turned out to be 1.03. For the same compound, in series [2], half-maximal inhibition (IC50) required 91.5 ± 14.9 µg/mL (≈ 232 µM) and the “SI, THP-1” value amounted to 0.67. Further, in series [3], the half-maximal inhibitory concentration (IC50) stood at 78.9 ± 1.79 µg/mL (≈ 200 µM) and the “SI, MCF-7” value is on record as 0.78. Besides, the CC50 in series [4] came to 61.7 ± 1.26 µg/mL (≈ 156 µM).
As to `CC=C1C(OC2OC(CO)C(O)C(O)C2O)OC=C2C(=O)OC3CC(C(C)CO)C(COC(=O)CC21)C3C` (centres unmarked) [Compound 3, jasminin], in series [1], the IC50 came to 44.2 ± 4.32 µg/mL (≈ 81.5 µM) and the “SI, HepG-2” value is recorded as 1.01. Also, in series [2], the IC50 was found to be 82.7 ± 15.7 µg/mL (≈ 152 µM) and the “SI, THP-1” value was determined as 0.54. In series [3], the IC50 was found to be 28.6 ± 1.18 µg/mL (≈ 52.7 µM) and the “SI, MCF-7” value is 1.57. Further, the midpoint of cytotoxicity in series [4], the CC50, lay at 44.7 ± 1.84 µg/mL (≈ 82.4 µM).
In the case of `CC(CO)C1CC2OC(=O)C3=COC(C)C(C=O)C3CC(=O)OCC1C2C` (single isomer, unassigned; (-)) [Compound 2, (-)-1-Methyl-9-aldojasmigenin], in series [1], the midpoint of inhibition, the IC50, lay at 43.3 ± 4.78 µg/mL (≈ 114 µM) and the “SI, HepG-2” value stood at 1.40. In series [2], the IC50 was determined as 68.9 ± 9.71 µg/mL (≈ 181 µM) and the “SI, THP-1” value is on record as 0.88. For the same compound, in series [3], the IC50 was 60.6 ± 2.3 µg/mL (≈ 159 µM) and the “SI, MCF-7” value was found to be 1.00. This compound registered a CC50 in series [4] of 60.5 ± 2.72 µg/mL (≈ 159 µM).
For `O=c1ccc2ccccc2o1` [Compound 6, coumarin], in series [1], the midpoint of inhibition, the IC50, lay at 165 ± 7.08 µg/mL (≈ 1130 µM) and the “SI, HepG-2” value was 1.19. In addition, in series [2], the IC50 was 296 ± 25.7 µg/mL (≈ 2020 µM) and the “SI, THP-1” value came out at 0.66. Also, in series [3], 194 ± 8.8 µg/mL (≈ 1330 µM) corresponded to half-maximal inhibition (IC50) and the “SI, MCF-7” value turned out to be 1.01. The CC50 in series [4] was 196 ± 13.3 µg/mL (≈ 1340 µM).
For the compound `OC[C@@H](O)[C@@H](O)[C@H](O)[C@H](O)CO` [Compound 7, D-mannitol], in series [1], the IC50 was determined as 69.1 ± 12.3 µg/mL (≈ 379 µM) and the “SI, HepG-2” value is 2.52. Moreover, in series [2], half-maximal inhibition (IC50) was put at 214 ± 22.1 µg/mL (≈ 1180 µM) and the “SI, THP-1” value is recorded as 0.81. In series [3], the IC50 turned out to be 161 ± 11.9 µg/mL (≈ 882 µM) and the “SI, MCF-7” value came out at 1.09. Further, the CC50 in series [4] was found to be 173 ± 6.2 µg/mL (≈ 951 µM).
As to `CC=C1C(OC2OC(CO)C(O)C(O)C2O)OC=C(C(=O)OC)C1CC(=O)OCC(C)C1CC2OC(=O)C3=COC(OC4OC(CO)C(O)C(O)C4O)C(=CC)C3CC(=O)OCC1C2C` (centres unmarked) [Compound 5, jasmoside], in series [1], the IC50 came out at 66.5 ± 8.15 µg/mL (≈ 71.6 µM) and the “SI, HepG-2” value is 3.16. Moreover, in series [2], inhibition was half-maximal at 27.6 ± 4.63 µg/mL (≈ 29.7 µM) (IC50) and the “SI, THP-1” value is listed as 7.62. In series [3], the IC50 stood at 41.3 ± 1.77 µg/mL (≈ 44.5 µM) and the “SI, MCF-7” value was 5.09. In series [4], the CC50 came out at 210 ± 5.05 µg/mL (≈ 226 µM).

The values are drawn from paper PMC9377236, “Cytotoxic effects of extracts obtained from plants of the Oleaceae family: bio-guided isolation and molecular docking of new secoiridoids from Jasminum humile” (Pharmaceutical Biology, 2022).
